Data set [1] can be described thus: binding to lipid II, agar well-diffusion after mixing with lipid II. Particulars: 10 μm peptide with 20 μm lipid II, 4°C for 1 h, indicator M. luteus 10209. In kind it is cell-based, Micrococcus luteus. Here is the method:
Studies have shown that lipid II was the target of nisin ([25]), and the combination of lipid II and nisin can mediate the formation of pores. Nisin and pentocin ZFM94 were mixed with lipid II, respectively. The final concentration of nisin or pentocin ZFM94 was 10 μm, while the concentration of lipid II was 20 μm. The mixture was maintained at 4°C for 1 h. The changes in the antibacterial activity were detected by the agar well-diffusion method. Micrococcus luteus 10209 was used as the indicator. Then, the size of the inhibition zone was observed.

For data set [2] the following is noted: cited from earlier work. Here is the method:
It retained 80.37% of its original antibacterial activity after heating at 80°C for 30 min. The antibacterial activity of pentocin ZFM94 was stable at pH 2–7. […] Pentocin ZFM94 was sensitive to trypsin and pepsin, but not to amylase, lysozyme, lipase, and ribonuclease A. Studies have reported that leuconocin S and carnocin 5 ...

Where no end group is shown, it is not given here. [ ]: non-standard residue; d: D form. Abu = CC[C@H](N)C(=O)O; Dhb = C/C=C(\N)C(=O)O; Dha = C=C(N)C(=O)O

Take “nisin (I[Dhb]AI[Dha]LC[Abu]PGCK[Abu]GALMGCNMK[Abu]A[Abu]CHCSIHV[Dha]K; thioether (positions not given here); not fully specified (residues 7, 11, 19, 26, 28, bridges); also: lantibiotic: thioether bridges and dehydrated residues, places not given here; UniProt P13068 24-57, looked up)”: the “antibacterial effect after mixing with lipid II” value in data set [1] is reported as “disappeared”. In data set [2], the “activity at pH close to 7” value is on record as “inactivated”.

The record behind these values is PMC8342802, “A Novel Bacteriocin From Lactobacillus Pentosus ZFM94 and Its Antibacterial Mode of Action” (Frontiers in Nutrition, 2021).
